In general, Km refers to the concentration of substrate that gives half-maximal velocity.

Structures are written as SMILES. Where two headings read alike, the source gives them in different places.

Settings in all cases: 10 mM MgCl2, 100 mM Tris pH 8.0, 25 °C
The subject of assay [1] is PcIPMS1.
For assay [2], the system named is PcIBMS1.
The test system of assay [3] is PcIPMS1. The experiment in a line: DTNB end-point spectrophotometric assay. In kind it is biochemical, Pogostemon cablin.
Assay [4] relates to PcIBMS1. The experiment in a line: DTNB end-point spectrophotometric assay. Type of assay: biochemical, Pogostemon cablin.

Take `CC(C)C(=O)C(=O)O` [2-oxoisovalerate]: the Michaelis-Menten constant (Km) was found to be 622 ± 58.3 µM in assay [1] (1 mM acetyl-CoA), 444 ± 44.4 µM in assay [2] (1 mM acetyl-CoA), 288 ± 8.2 µM in assay [3] (1 mM acetyl-CoA) and 1300 ± 128 µM in assay [4] (1 mM acetyl-CoA).
`CC(C)CC(=O)C(=O)O` [4-methyl-2-oxovalerate]: the Michaelis constant (Km) in assay [2] (1 mM acetyl-CoA) was 95 ± 17.9 µM; in assay [4] (1 mM acetyl-CoA), 140 ± 39.4 µM.
As to `CC(=O)SCCNC(=O)CCNC(=O)[C@H](O)C(C)(C)COP(=O)(O)OP(=O)(O)OC[C@H]1O[C@@H](n2cnc3c(N)ncnc32)[C@H](O)[C@@H]1OP(=O)(O)O` [acetyl-CoA], the Km in assay [1] (2 mM 2-oxoisovalerate) was found to be 22.7 ± 1.9 µM; in assay [2] (2 mM 4-methyl-2-oxovalerate), 132 ± 6.5 µM; in assay [3] (2 mM 2-oxoisovalerate), 48.1 ± 2.8 µM; in assay [4] (2 mM 4-methyl-2-oxovalerate), 145 ± 21.2 µM.

The values are drawn from publication doi:10.1101/2021.09.28.462264v1 (biorxiv, 2021).
